PubChem BioAssay AID248 (DTP/NCI, 2004)
Where “and” joins values, the source holds several entries; their conditions need not be identical. Equal values may be shown once. Inconclusive results and toxic doses are left out. Rule as the data show it: active = T/C of 150% or more; inactive = T/C below 125%. Bridge positions count the residues as written; N and C are the ends. Peptide text beside a SMILES is read from it. I, II: the chains in the order shown.

System: L1210 leukemia ip in BDF1 mice, survival T/C
Assay: NCI In Vivo Anticancer Drug Screen. Data for tumor model L1210 Leukemia (intraperitoneal) in B6D2F1 (BDF1) mice
Details: endpoint: mean survival time, higher = longer survival
Method in brief: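 In this screen, tumor-bearing mice given compound are compared to those given vehicle, and their survival values are reported as a treated-to-control quotient.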

[1] = dose: 100.0 mg/kg/injection, schedule: Q04DX003 (ip), vehicle: Klucel (hydroxypropylcellulose) (HPC)
[2] = dose: 400.0 mg/kg/injection, schedule: Q04DX003 (ip), vehicle: Klucel (hydroxypropylcellulose) (HPC)
[3] = dose: 100.0 mg/kg/injection, schedule: Q01DX009 (ip), vehicle: saline with Tween-80
[4] = dose: 100.0 mg/kg/injection, schedule: Q04DX003 (ip), vehicle: saline with Tween-80
[5] = dose: 200.0 mg/kg/injection, schedule: Q01DX009 (ip), vehicle: saline with Tween-80
[6] = dose: 200.0 mg/kg/injection, schedule: Q04DX003 (ip), vehicle: saline with Tween-80
[7] = dose: 400.0 mg/kg/injection, schedule: Q01DX009 (ip), vehicle: saline with Tween-80
[8] = dose: 400.0 mg/kg/injection, schedule: Q04DX003 (ip), vehicle: saline with Tween-80
[9] = dose: 100.0 mg/kg/injection, schedule: Q01DX001 (ip), vehicle: saline
[10] = dose: 200.0 mg/kg/injection, schedule: Q01DX001 (ip), vehicle: saline
[11] = dose: 400.0 mg/kg/injection, schedule: Q01DX001 (ip), vehicle: saline
[12] = dose: 50.0 mg/kg/injection, schedule: Q01DX009 (ip), vehicle: Klucel (hydroxypropylcellulose) (HPC)
[13] = dose: 100.0 mg/kg/injection, schedule: Q01DX009 (ip), vehicle: Klucel (hydroxypropylcellulose) (HPC)
[14] = dose: 200.0 mg/kg/injection, schedule: Q01DX009 (ip), vehicle: Klucel (hydroxypropylcellulose) (HPC)
[15] = dose: 50.0 mg/kg/injection, schedule: Q04DX002 (ip), vehicle: saline
[16] = dose: 100.0 mg/kg/injection, schedule: Q04DX002 (ip), vehicle: saline
[17] = dose: 100.0 mg/kg/injection, schedule: Q04DX002 (ip), vehicle: Klucel (hydroxypropylcellulose) (HPC)
[18] = dose: 200.0 mg/kg/injection, schedule: Q04DX002 (ip), vehicle: Klucel (hydroxypropylcellulose) (HPC)
[19] = dose: 400.0 mg/kg/injection, schedule: Q04DX002 (ip), vehicle: Klucel (hydroxypropylcellulose) (HPC)

Measured: T/C

COC(=O)Nc1ccc(C)c(NC(=O)OC)c1
inactive: [1] 104 % of control | dose: 200.0 mg/kg/injection, schedule: Q04DX003 (ip), vehicle: Klucel (hydroxypropylcellulose) (HPC) 93 % of control | [2] 107 % of control

COC(=O)C1CC2CCC1O2 (stereo not drawn)
inactive: dose: 100.0 mg/kg/injection, schedule: Q01DX009 (ip), vehicle: carboxymethylcellulose (CMC) 100 % of control | dose: 200.0 mg/kg/injection, schedule: Q01DX009 (ip), vehicle: carboxymethylcellulose (CMC) 98 % of control | dose: 400.0 mg/kg/injection, schedule: Q01DX009 (ip), vehicle: carboxymethylcellulose (CMC) 94 % of control

C=CCN(CC=C)/N=N/c1nc[nH]c1C(N)=O
inactive: dose: 37.5 mg/kg/injection, schedule: Q01DX009 (ip), vehicle: saline with Tween-80 104 % of control | dose: 75.0 mg/kg/injection, schedule: Q01DX009 (ip), vehicle: saline with Tween-80 100 % of control | dose: 150.0 mg/kg/injection, schedule: Q01DX009 (ip), vehicle: saline with Tween-80 98 % of control

CCOc1c(Br)cc(Br)cc1C=O
inactive: [3] 97 % of control | [4] 103 % of control | [5] 94 % of control | [6] 109 % of control | [7] 110 % of control | [8] 103 % of control

C[N+](C)(C)CC1COCCO1 (stereo not drawn)
inactive: dose: 5.0 mg/kg/injection, schedule: Q01DX001 (ip), vehicle: saline 105 % of control

O=C(N/N=C/c1cccnc1)C(O)C(O)C(O)C(O)CO (stereo not drawn)
inactive: [9] 100 % of control | [10] 103 % of control | [11] 93 % of control

CC(=O)Nc1cc([As](=O)(O)O)ccc1O
inactive: [12] 105 % of control | [13] 102 % of control | [14] 97 % of control

CC(=O)C(C(=O)NCc1ccccc1)C(c1cccc([N+](=O)[O-])c1)C(C(C)=O)C(=O)NCc1ccccc1 (stereo not drawn)
inactive: dose: 25.6 mg/kg/injection, schedule: Q04DX002 (ip), vehicle: saline with Tween-80 95 % of control | dose: 64.0 mg/kg/injection, schedule: Q04DX002 (ip), vehicle: saline with Tween-80 95 % of control | dose: 160.0 mg/kg/injection, schedule: Q04DX002 (ip), vehicle: saline with Tween-80 95 % of control | [6] 87 % of control | dose: 400.0 mg/kg/injection, schedule: Q04DX002 (ip), vehicle: saline with Tween-80 95 % of control | [8] 87 % of control

CCOC(=O)C(Cc1ccc(O)cc1)NC(=O)C(N)CSSCC(N)C(=O)NC(Cc1ccc(O)cc1)C(=O)OCC (stereo not drawn) (I: H-Cys-Tyr-OEt / II: H-Cys-Tyr-OEt; disulfide I:1-II:1; configuration not given here)
inactive: [9] 97 % of control | [10] 105 % of control | [11] 94 % of control

O=C(Nc1ccccc1)c1cc(Cl)ccc1O
inactive: [3] 95 % of control | [4] 86 % of control | [5] 95 % of control | [6] 94 % of control | [7] 95 % of control | [8] 87 % of control

C=CCC(CC=C)(C(N)=O)c1ccc(OC)cc1
inactive: dose: 100.0 mg/kg/injection, schedule: Q01DX001 (ip), vehicle: carboxymethylcellulose (CMC) 100 % of control | dose: 200.0 mg/kg/injection, schedule: Q01DX001 (ip), vehicle: carboxymethylcellulose (CMC) 97 % of control | dose: 400.0 mg/kg/injection, schedule: Q01DX001 (ip), vehicle: carboxymethylcellulose (CMC) 111 % of control

CCNc1ccc(/C=C2\C=Cc3ccccc32)cc1
inactive: dose: 25.0 mg/kg/injection, schedule: Q01DX009 (ip), vehicle: Klucel (hydroxypropylcellulose) (HPC) 96 % of control | [12] 102 % of control | dose: 75.0 mg/kg/injection, schedule: Q01DX001 (ip), vehicle: olive oil, sesame oil, peanut oil 103 % of control | [13] 96 % of control | dose: 150.0 mg/kg/injection, schedule: Q01DX001 (ip), vehicle: olive oil, sesame oil, peanut oil 108 % of control

O=P(O)(O)OCC1OC(n2cnc3c(Cl)ncnc32)C(O)C1O (stereo not drawn)
inactive: [15] 115 % of control | [16] 100 % of control | dose: 200.0 mg/kg/injection, schedule: Q04DX002 (ip), vehicle: saline 123 % of control

CC(=O)Nn1cnc2ccccc2c1=O
inactive: [12] 98 % of control | [13] 98 % of control | [14] 98 % of control

CCN1CCCN(CC)C1=O
inactive: [17] 96 % of control | [18] 96 % of control | [19] 90 % of control

CC(=O)c1cccc(NC(=O)COc2cc(Cl)c(Cl)cc2Cl)c1
inactive: [17] 106 % of control | [18] 113 % of control | [19] 102 % of control

CCCCCCCCCCCCOc1ccc(C=Nc2ccc(C)cc2)cc1
inactive: [17] 109 % of control | [18] 109 % of control | [19] 95 % of control

CC1[N-]CCC[N-]CCC[N-]C(C)C2CCCC1[N-]2.[Ni+2].[O-][Cl+3]([O-])([O-])O (stereo not drawn)
inactive: dose: 25.0 mg/kg/injection, schedule: Q04DX002 (ip), vehicle: saline 92 % of control | [15] 89 % of control | [16] 92 % of control

CC(c1c[nH]c2ccccc12)C(N)C(=O)O (stereo not drawn)
inactive: dose: 100.0 mg/kg/injection, schedule: Q04DX003 (ip), vehicle: saline 95 % of control and 93 % of control | dose: 200.0 mg/kg/injection, schedule: Q04DX003 (ip), vehicle: saline 98 % of control and 92 % of control | dose: 400.0 mg/kg/injection, schedule: Q04DX003 (ip), vehicle: saline 95 % of control and 97 % of control

CCOC(=O)OC1C(OC)OC2COC(c3ccccc3)OC2C1OC(=O)OCC (stereo not drawn)
inactive: dose: 100.0 mg/kg/injection, schedule: Q04DX002 (ip), vehicle: other 103 % of control | dose: 200.0 mg/kg/injection, schedule: Q04DX002 (ip), vehicle: other 97 % of control | dose: 400.0 mg/kg/injection, schedule: Q04DX002 (ip), vehicle: other 100 % of control

COC1(OC)C(Cl)=C(Cl)C2C1C1(Cl)C(Cl)=C(Cl)C2(Cl)C1(OC)OC (stereo not drawn)
inactive: [3] 98 % of control | [5] 98 % of control | [7] 96 % of control

CCOC(=O)CCc1c(C)[nH]c(C(=O)OCC)c1C
inactive: dose: 100.0 mg/kg/injection, schedule: Q01DX001 (ip), vehicle: Klucel (hydroxypropylcellulose) (HPC) 98 % of control | [1] 92 % of control | dose: 200.0 mg/kg/injection, schedule: Q01DX001 (ip), vehicle: Klucel (hydroxypropylcellulose) (HPC) 97 % of control | dose: 400.0 mg/kg/injection, schedule: Q01DX001 (ip), vehicle: Klucel (hydroxypropylcellulose) (HPC) 97 % of control | [2] 108 % of control

COc1c(N(C)C)cc2c(c1C)OC(C)(C)C=C2
inactive: [4] 96 % of control | [6] 94 % of control | [8] 96 % of control

CCCCCCCCCCCn1cnc2c(=S)nc[nH]c21
inactive: dose: 12.5 mg/kg/injection, schedule: Q01DX005 (ip), vehicle: other 103 % of control | dose: 25.0 mg/kg/injection, schedule: Q01DX005 (ip), vehicle: other 97 % of control | dose: 50.0 mg/kg/injection, schedule: Q01DX005 (ip), vehicle: other 98 % of control | dose: 100.0 mg/kg/injection, schedule: Q01DX005 (ip), vehicle: other 98 % of control | dose: 200.0 mg/kg/injection, schedule: Q01DX005 (ip), vehicle: other 97 % of control

C#CC(C)(O)CC (stereo not drawn)
inactive: [9] 100 % of control | [10] 100 % of control | [11] 103 % of control
